The NIST ThermoML archive (doi:10.1021/je700591h)
Numbers after ± are expanded uncertainties.

Settings: Crystal

Normal melting temperature: 18.51 ± 6 °C
SMILES: C[S+](C)[O-] [dimethyl sulfoxide]
